“And” between values parts separate entries of the source, which are not always exact repeats. Equal values may be shown once.
Legend:
[1] = Carboplatin quantified by LC-MS in mouse plasma and TNBC xenograft tissue; assay type: in vivo, beige SCID mice
Method: Forty-one beige DF mice with severe combined immunodeficiency (SCID) (Fox Chase, strain R035948:1) were implanted with 10^6 MDA-MB-231 (N = 10), HCC70 N = 21) or MDA-MB-436 (N = 10) TNBC cells obtained from the ATCC bilaterally in the mammary fat pads (Fig. 1). When the TNBC xenograft tissue size exceeded 200 mm^3, the mice were randomized across the treatment cohorts. Animals were randomized into veliparib low dose (20 mg/kg), veliparib high dose (60 mg/kg) or placebo + C, introduced via oral gavage three times daily for 3 days (all but the two DCE-MRI study mice). Carboplatin at 60 mg/kg was administered intravenously on day 1 and day 2. […]
Thirty-nine mice were euthanized approximately 3 h after the last dose of veliparib and 24 h after the last dose of carboplatin; two mice used in the DCE-MRI pilot were euthanized 1.5 h after single-dose administration of veliparib and carboplatin (Fig. 1). […] A separate fresh-frozen portion of each tissue per animal was ground for quantification of veliparib and carboplatin by LC-MS. […]
Plasma samples (50 μl ) were prepared using protein precipitation with acetonitrile. […] Volume and weight of the pulverized tumor was determined. […]
Veliparib/carboplatin quantification: […]
Concentration of veliparib in tissues were calculated in mg/g and transferred to mg/L by estimating the average density of the livers, muscles and tumors. […]

[2] = Carboplatin plasma PK in patients of phase 1 trial (three-compartment model); assay type: in vivo
Method: Carboplatin and platinum adducts were determined in a limited number of blood samples from a previously presented phase 1 clinical trial (NCT02358200). […] In the case of grade 3 or grade 4 toxicity, carboplatin and/or talazoparib doses were held until below grade 1 and resumed at a lower dose level. Blood samples were obtained from a limited number of patients during cycle 1 day 1 (prior to talazoparib dosing) and cycle 2 day 1 pre-dose and up to 24 h post dose, and PBMCs were derived at day 15 post dose, DNA was extracted as described in Additional file 1d and platinum adducts were quantified by ICP-MS (Additional file 1b).
A three-compartment model best described carboplatin in plasma and no variability between patients was observed (Additional file 1: Figure S12 and Table S2). In further analyses, we assumed that the carboplatin plasma PK profile in the other 16 patients was similar to that the first 3 patients: in these patients glomerular filtration rate (GFR) ranged from 60 to 151 mL/min and BSA values ranged from 1.58 to 2.0 m^2. […] [34].
Supplementary Table 2: PK patients estimates carboplatin and platinum adducts Structural model PK Estimat RS
Inter-individual variability on Platinum adduct formation (RPT) 317% proportional residual error plasma carboplatin 28% 26 […]
proportional residual error adduct formation 110% 6%
Platinum adduct formation:
CL=clearance, V=volume of distribution, KA= rate of absorption, RPT= ratio of carboplatin adduct formation, KPT= rate of carboplatin adduct formation, gBRCA = germline BRCA carrier […]
(also on this page, place not known: ( )adductsC−×× plasmaCRPT KPT=dt dCadducts)
(1 picture or pasted object on this page, not shown here)

Q: With `N.N.O=C([O-])C1(C(=O)[O-])CCC1.[Pt+2]` [carboplatin] as the molecule, how does the “Carboplatin in TNBC xenograft tissues” value ([1]; 24 h after administration, MALDI-MSI and LC-MS) read?
A: undetectable

Q: And the “Median conc. (RSE %)” value ([1]; plasma, 0.6 h after carboplatin 60 mg/kg intravenously, LC-MS)?
A: 24 mg/L and 24 (20) mg/L

Q: What about the “Half-life carboplatin in plasma” value [2] of the same molecule?
A: 2.1 h

Q: And the Q [2]?
A: 0.324 L/h

Q: What about the Q2 [2] of the same molecule?
A: 16.7 L/h

Q: What about the V1 [2] of the same molecule?
A: 0.935 L

Q: And the V2 [2]?
A: 52.8 L

Q: What about the CLday15 ([2]; day 15) of the same molecule?
A: 5.33 L/h

Q: What about the CLday1 ([2]; single agent day 1) of the same molecule?
A: 5.2 L/h

Reference: paper PMC5594551, “Heterogeneous drug penetrance of veliparib and carboplatin measured in triple negative breast tumors” (Breast Cancer Research : BCR, 2017)
